# Assay results reported in ChEMBL document CHEMBL4825658, “Discovery of 3-(4-(2-((1H-Indol-5-yl)amino)-5-fluoropyrimidin-4-yl)-1H-pyrazol-1-yl)propanenitrile Derivatives as Selective TYK2 Inhibitors for the Treatment of Inflammatory Bowel Disease” (J Med Chem, 2021).
# How the values were obtained:
# [1] = biological target: Tyrosine-protein kinase JAK2 (Homo sapiens, UniProt O60674); assay: Inhibition of recombinant human JAK2 (808 to end residues) KTFCGTPEYLAPE as substrate measured after 40 mins in presence of [gamm33P]ATP by scintillation counting based radiometry assay
# [2] = organism: Homo sapiens; assay: Selectivity index, ratio of IC50 for inhibition of recombinant human JAK2 (808 to end residues) to IC50 for inhibition of recombinant human TYK2 (875 to end residues)
# [3] = biological target: Non-receptor tyrosine-protein kinase TYK2 (Homo sapiens, UniProt P29597); assay: Inhibition of recombinant human TYK2 (875 to end residues) using GGMEDIYFEFMGG as substrate incubated for 40 mins in presence of [gamma33P]ATP by scintillation counting based radiometry assay
# [4] = Metabolic stability in cryopreserved human liver microsomes assessed as half life; format: ADME, Microsome
# [5] = biological target: T1, Tyrosine-protein kinase JAK3 (Homo sapiens, UniProt P52333); assay: Inhibition of recombinant human JAK3 (781 to end residues) using GGEEEEYFELVKKKK as substrate measured after 40 mins in presence of [gamma33P]ATP by scintillation counting based radiometry assay
# T1 sequence (P52333 whole entry): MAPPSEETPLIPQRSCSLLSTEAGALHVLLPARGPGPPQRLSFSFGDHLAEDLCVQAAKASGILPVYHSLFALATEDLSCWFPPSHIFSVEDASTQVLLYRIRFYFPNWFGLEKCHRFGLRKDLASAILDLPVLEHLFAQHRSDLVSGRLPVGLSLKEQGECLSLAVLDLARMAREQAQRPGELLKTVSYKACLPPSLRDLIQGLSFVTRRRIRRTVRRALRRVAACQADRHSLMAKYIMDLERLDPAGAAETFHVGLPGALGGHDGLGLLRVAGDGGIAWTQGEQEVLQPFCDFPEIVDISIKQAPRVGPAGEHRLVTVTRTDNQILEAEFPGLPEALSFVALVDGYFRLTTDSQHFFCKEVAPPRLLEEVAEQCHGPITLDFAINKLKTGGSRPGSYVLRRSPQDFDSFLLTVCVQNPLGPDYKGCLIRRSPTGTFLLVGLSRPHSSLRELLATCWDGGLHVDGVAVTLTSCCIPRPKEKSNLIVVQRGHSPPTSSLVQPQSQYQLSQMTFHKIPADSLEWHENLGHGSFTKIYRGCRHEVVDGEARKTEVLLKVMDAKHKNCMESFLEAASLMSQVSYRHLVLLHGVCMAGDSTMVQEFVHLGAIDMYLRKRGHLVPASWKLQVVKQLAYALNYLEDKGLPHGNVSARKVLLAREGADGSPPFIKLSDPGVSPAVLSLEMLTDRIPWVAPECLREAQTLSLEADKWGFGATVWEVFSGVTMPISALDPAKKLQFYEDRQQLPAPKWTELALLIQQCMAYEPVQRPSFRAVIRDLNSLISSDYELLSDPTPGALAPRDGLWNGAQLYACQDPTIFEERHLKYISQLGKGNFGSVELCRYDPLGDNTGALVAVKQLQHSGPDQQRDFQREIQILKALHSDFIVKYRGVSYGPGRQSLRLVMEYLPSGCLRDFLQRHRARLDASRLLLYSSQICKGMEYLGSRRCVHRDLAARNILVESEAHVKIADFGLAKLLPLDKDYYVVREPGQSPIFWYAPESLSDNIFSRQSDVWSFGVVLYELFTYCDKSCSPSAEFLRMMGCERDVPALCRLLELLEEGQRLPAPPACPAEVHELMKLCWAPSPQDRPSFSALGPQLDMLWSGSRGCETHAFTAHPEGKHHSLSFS
# [6] = biological target: Tyrosine-protein kinase JAK1 (Homo sapiens, UniProt P23458); assay: Inhibition of human JAK1 (866 to end residues) using GEEPLYWSFPAKKK as substrate after 40 mins in presence of [gamma33P]ATP by scintillation counting based radiometry assay
# Sequence of Tyrosine-protein kinase JAK1 (P23458 whole entry): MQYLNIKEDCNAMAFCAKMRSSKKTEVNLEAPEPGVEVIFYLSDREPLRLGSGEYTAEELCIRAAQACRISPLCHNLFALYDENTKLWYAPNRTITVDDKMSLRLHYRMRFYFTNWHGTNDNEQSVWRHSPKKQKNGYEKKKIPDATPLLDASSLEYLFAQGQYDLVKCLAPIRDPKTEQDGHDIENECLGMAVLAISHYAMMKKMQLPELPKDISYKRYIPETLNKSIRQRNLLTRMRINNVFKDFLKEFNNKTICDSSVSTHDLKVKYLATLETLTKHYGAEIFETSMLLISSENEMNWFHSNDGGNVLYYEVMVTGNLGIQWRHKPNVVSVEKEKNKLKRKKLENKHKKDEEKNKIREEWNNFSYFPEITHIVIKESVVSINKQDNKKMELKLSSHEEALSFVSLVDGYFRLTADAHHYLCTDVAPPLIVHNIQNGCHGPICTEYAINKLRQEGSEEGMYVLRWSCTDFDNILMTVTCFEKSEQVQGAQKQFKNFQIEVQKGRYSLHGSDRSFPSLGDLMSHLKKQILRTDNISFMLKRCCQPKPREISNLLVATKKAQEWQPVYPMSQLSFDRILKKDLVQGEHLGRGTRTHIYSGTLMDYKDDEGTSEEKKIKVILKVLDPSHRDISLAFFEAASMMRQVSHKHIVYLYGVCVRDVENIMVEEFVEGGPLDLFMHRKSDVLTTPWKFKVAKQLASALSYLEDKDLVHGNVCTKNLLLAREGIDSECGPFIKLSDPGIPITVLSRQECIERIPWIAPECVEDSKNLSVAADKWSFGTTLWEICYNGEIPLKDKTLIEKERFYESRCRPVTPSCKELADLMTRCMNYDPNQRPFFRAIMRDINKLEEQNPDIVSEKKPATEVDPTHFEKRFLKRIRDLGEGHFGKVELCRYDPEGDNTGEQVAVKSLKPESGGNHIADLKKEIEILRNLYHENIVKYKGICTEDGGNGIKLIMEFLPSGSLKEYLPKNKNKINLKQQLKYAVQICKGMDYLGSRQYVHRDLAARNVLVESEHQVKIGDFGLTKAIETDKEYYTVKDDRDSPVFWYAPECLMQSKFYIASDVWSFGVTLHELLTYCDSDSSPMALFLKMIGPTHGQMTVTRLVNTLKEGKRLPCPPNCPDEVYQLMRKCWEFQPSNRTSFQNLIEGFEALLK
# Sequence of Tyrosine-protein kinase JAK2 (O60674 whole entry): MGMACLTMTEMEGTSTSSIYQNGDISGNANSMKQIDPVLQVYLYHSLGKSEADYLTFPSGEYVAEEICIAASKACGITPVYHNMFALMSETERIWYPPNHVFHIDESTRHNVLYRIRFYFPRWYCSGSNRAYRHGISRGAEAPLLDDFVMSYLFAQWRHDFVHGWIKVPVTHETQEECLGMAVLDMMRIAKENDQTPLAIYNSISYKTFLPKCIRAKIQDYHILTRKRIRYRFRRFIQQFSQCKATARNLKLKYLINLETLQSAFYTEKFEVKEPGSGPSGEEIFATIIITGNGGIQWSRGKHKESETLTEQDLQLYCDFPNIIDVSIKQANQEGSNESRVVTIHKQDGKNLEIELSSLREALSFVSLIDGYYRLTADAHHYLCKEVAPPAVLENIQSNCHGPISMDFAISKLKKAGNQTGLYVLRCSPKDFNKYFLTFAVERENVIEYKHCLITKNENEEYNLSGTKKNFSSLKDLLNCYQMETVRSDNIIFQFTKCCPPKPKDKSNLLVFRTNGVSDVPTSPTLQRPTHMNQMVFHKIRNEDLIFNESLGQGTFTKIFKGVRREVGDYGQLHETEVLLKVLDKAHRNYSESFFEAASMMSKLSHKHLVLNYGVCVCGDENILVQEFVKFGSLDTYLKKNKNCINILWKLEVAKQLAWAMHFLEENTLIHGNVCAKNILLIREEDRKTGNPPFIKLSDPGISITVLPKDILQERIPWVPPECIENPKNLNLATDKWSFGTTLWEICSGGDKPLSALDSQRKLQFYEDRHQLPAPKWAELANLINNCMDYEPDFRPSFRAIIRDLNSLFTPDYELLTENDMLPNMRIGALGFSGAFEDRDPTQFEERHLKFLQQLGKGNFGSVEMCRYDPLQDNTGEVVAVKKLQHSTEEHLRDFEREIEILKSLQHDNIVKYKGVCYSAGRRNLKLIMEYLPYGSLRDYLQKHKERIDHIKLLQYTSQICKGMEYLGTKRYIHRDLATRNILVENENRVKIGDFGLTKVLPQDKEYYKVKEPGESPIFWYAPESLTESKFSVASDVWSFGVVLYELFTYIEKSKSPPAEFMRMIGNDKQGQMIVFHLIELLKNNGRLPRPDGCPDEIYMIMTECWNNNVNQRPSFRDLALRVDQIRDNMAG
# Sequence of Non-receptor tyrosine-protein kinase TYK2 (P29597 whole entry): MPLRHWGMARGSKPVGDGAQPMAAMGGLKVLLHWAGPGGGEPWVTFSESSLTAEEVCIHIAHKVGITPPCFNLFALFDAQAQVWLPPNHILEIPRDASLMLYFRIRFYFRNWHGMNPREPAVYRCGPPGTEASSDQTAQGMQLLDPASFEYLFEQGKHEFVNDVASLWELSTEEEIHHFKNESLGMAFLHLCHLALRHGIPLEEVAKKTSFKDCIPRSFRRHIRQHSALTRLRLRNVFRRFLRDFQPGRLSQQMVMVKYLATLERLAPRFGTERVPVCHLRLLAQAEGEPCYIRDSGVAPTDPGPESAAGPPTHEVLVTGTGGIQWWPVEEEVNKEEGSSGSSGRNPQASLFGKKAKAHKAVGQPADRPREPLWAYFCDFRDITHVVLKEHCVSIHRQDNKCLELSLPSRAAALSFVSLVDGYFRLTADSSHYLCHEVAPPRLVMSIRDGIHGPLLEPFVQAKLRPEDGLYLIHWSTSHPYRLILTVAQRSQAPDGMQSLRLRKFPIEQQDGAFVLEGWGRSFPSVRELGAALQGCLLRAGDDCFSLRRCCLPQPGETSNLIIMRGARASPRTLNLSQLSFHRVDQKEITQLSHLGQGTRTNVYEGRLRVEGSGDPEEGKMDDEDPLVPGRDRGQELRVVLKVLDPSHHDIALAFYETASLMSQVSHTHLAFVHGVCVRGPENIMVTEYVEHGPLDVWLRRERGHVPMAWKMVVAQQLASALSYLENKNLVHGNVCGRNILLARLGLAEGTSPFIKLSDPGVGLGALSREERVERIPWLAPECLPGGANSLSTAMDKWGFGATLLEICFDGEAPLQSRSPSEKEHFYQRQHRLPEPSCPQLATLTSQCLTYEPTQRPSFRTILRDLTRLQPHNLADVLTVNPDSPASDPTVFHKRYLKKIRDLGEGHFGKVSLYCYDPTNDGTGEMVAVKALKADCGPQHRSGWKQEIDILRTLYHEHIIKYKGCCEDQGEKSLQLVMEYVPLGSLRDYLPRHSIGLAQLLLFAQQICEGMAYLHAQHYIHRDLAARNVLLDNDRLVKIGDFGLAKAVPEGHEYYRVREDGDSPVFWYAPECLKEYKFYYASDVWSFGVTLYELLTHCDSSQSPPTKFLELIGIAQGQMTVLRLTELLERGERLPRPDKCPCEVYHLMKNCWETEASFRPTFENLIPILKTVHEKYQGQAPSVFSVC
SMILES,IC50 [1] [nM],Selectivity Index [2],IC50 [3] [nM],half-life [4] [min],IC50 [5] [nM],IC50 [6] [nM]
Cc1cnc(Nc2ccc3c(c2)CCN3C(=O)[C@@H](O)CO)nc1-c1cnn(C(C)C)c1,21.2,1.95,10.8,,,
Cc1cnc(Nc2ccc3c(c2)CCN3C(=O)c2cccc(C(F)(F)F)c2)nc1-c1cnn(C(C)C)c1,65.3,4.49,14.6,,,
N#CCCn1cc(-c2nc(Nc3ccc4c(ccn4S(=O)(=O)c4ccc(C(F)(F)F)cc4)c3)ncc2F)cn1,,,,38.1,,
Cc1cnc(Nc2ccc(NS(=O)(=O)c3ccc(C(F)(F)F)cc3)c(F)c2)nc1-c1cnn(C(C)C)c1,25,,13,,688,41
Cc1cnc(Nc2ccc3c(c2)CCN3S(=O)(=O)c2ccc3c(c2)CC(=O)N3C)nc1-c1cnn(C(C)C)c1,12.6,< 1,63,,,
N#CCCn1cc(-c2nc(Nc3ccc4c(c3)CCN4S(=O)(=O)c3ccc(C(F)(F)F)cc3)ncc2F)cn1,,,9,9.2,,
CCOC(C)n1cc(-c2nc(Nc3ccc4c(c3)CCN4S(=O)(=O)c3ccc(C(F)(F)F)cc3)ncc2C)cn1 (stereo unspecified),341,,38,15.3,510,383
N#CCCn1cc(-c2nc(Nc3ccc4c(ccn4C(=O)C4CC4)c3)ncc2F)cn1,299,,151,69.3,,
Cc1cnc(Nc2ccc3c(c2)CCN3S(=O)(=O)c2ccc3c(c2)CC(=O)N3)nc1-c1cnn(C(C)C)c1,25,2.03,12.3,,,
CC(C)(C)c1ccc(C(=O)N2CCc3cc(Nc4ncc(F)c(-c5cnn(CCC#N)c5)n4)ccc32)cc1,601,,40,,,
CCCn1cc(-c2nc(Nc3ccc4c(c3)CCN4S(=O)(=O)c3ccc(C(F)(F)F)cc3)ncc2C)cn1,,,23,2.38,,
Cc1cnc(Nc2ccc3c(c2)CCN3S(=O)(=O)c2ccc(C(F)(F)F)cc2)nc1-c1cnn(C(C)C)c1,82,5.12,16,3.94,> 1000,341
N#CCCn1cc(-c2nc(Nc3ccc4c(c3)CCN4C(=O)C3(C#N)CC3)ncc2F)cn1,28,,6,31.8,191,259
Cc1cnc(Nc2ccc3c(c2)CCN3S(=O)(=O)c2ccc(C(F)(F)F)cc2)nc1-c1cnn(C2CCC2)c1,162,,12,19.5,> 1000,333
Cc1cnc(Nc2ccc3c(c2)CCN3C(=O)c2ccc(C(F)(F)F)cc2F)nc1-c1cnn(C(C)C)c1,25.1,2.36,10.6,,,
Cn1ccc2cc(Nc3ncc(F)c(-c4cnn(CCC#N)c4)n3)ccc21,114,,18,7.62,,
N#CCCn1cc(-c2nc(Nc3ccc4c(c3)CNC4=O)ncc2F)cn1,58,,7,56.8,,
Cc1cnc(Nc2ccc3c(c2)CCN3C(=O)[C@@H]2C[C@@H]2F)nc1-c1cnn(C(C)C)c1,10.4,1.65,6.28,,,
Cc1cnc(Nc2ccc3c(c2)CCN3C(=O)Cc2ccc(OC(F)(F)F)cc2)nc1-c1cnn(C(C)C)c1,398,7.8,51.1,,,
Cc1cnc(Nc2ccc3c(c2)CCN3S(=O)(=O)c2ccc(C(F)(F)F)cc2)nc1-c1cnn(C2CC2)c1,,,60,4.13,,
Cc1cnc(Nc2ccc3c(c2)CCN3S(=O)(=O)c2ccc(C(F)(F)F)cc2)nc1-c1cnn(C)c1,> 1000,,148,7.3,> 1000,> 1000
Cc1cnc(Nc2ccc3c(c2)CCN3C(=O)CCN2CCOCC2)nc1-c1cnn(C(C)C)c1,12,1.24,9.64,,,
COc1ccc(S(=O)(=O)N2CCc3cc(Nc4ncc(C)c(-c5cnn(C(C)C)c5)n4)ccc32)cc1,24.1,3.08,7.82,,,

# The remaining lines, values ahead:
IC50 [1] [nM],Selectivity Index [2],IC50 [3] [nM],half-life [4] [min],IC50 [5] [nM],IC50 [6] [nM],SMILES
3,< 1,5,,,,Cc1cnc(Nc2ccc3c(c2)CCN3C(=O)[C@H]2CCCN2)nc1-c1cnn(C(C)C)c1
3.8,1.85,2.05,,,,Cc1cnc(Nc2ccc3c(c2)CCN3C(=O)[C@H]2CCCN2C(=O)C2(C#N)CC2)nc1-c1cnn(C(C)C)c1
2.38,< 1,2.69,,,,Cc1cnc(Nc2ccc3c(c2)CCN3S(=O)(=O)C2CC2)nc1-c1cnn(C(C)C)c1
6.65,1.16,5.72,,,,Cc1cnc(Nc2ccc3c(c2)CCN3C(=O)C2CC2(F)F)nc1-c1cnn(C(C)C)c1 (stereo unspecified)
21,,2,22,> 1000,84,Cc1cnc(Nc2ccc3c(c2)CCN3S(=O)(=O)c2ccc(C(F)(F)F)cc2)nc1-c1cnn(CCC#N)c1
1.1,,0.67,7.79,,,Cc1cnc(Nc2ccc3c(c2)CNC3=O)nc1-c1cnn(CCC#N)c1
3.86,1.03,3.76,,,,Cc1cnc(Nc2ccc3c(c2)CCN3C(=O)C2CC2)nc1-c1cnn(C(C)C)c1
196,,4,9.8,> 1000,912,N#CCCn1cc(-c2nc(Nc3ccc4c(c3)CCN4S(=O)(=O)C(F)(F)F)ncc2F)cn1
,,2,> 120,244,125,N#CCCn1cc(-c2nc(Nc3ccc4c(c3)CCN4C(=O)CN3CCS(=O)(=O)CC3)ncc2F)cn1
292,,2,3.2,,,N#CCCn1cc(-c2nc(Nc3ccc4c(c3)CCN4)ncc2F)cn1
6,3.31,1.81,,,,CC(=O)N1CCc2cc(Nc3ncc(C)c(-c4cnn(C(C)C)c4)n3)ccc21
3,1.51,1.99,,,,Cc1cnc(Nc2ccc3c(c2)CCN3C(=O)CN2CCS(=O)(=O)CC2)nc1-c1cnn(C(C)C)c1
,,2,,,,Cc1cnc(Nc2ccc(N3CCC(N(C)CCO)CC3)c(F)c2)nc1-c1cnn(C(C)C)c1
2.72,1.69,1.61,,,,CCS(=O)(=O)N1CCc2cc(Nc3ncc(C)c(-c4cnn(C(C)C)c4)n3)ccc21
2.29,< 1,3.84,,,,CCCS(=O)(=O)N1CCc2cc(Nc3ncc(C)c(-c4cnn(C(C)C)c4)n3)ccc21
153,,5,17.2,,,N#CCCn1cc(-c2nc(Nc3ccc4c(c3)CCN4C(=O)c3ccc(C(F)(F)F)cc3)ncc2F)cn1
